The text below walks through data of PubChem BioAssay AID1918994 (Molecular Pharmacology Branch, DTP, NCI, 2023).

Values joined by “and” are separate entries in the source; they are usually repeats but may differ in a detail not shown here. Equal entries are not always repeated. Where only a bound is given, the exact number is not on record here.

The test system of the test is 292921-168-R-J2-PDC complex spheroid growth. The test can be described thus: Anticancer human tumor 292921-168-R-J2-PDC patient-derived pancreatic carcinoma cell line growth inhibition [AhR]. The conditions noted are these: for viability, T/C: stronger effect = lower value. In a few lines:
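Agents were dosed in half-log steps down from roughly clinical Cmax, or from 10 microM where Cmax was unknown, alone and with AhR antagonists. Read-out: percent test/control growth of tumor spheroids containing HUVEC and MSC stromal cells.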

Where [1] appears, read: curve of first compound, second compound 0.1 µM.
Setting [2] is: curve of first compound, second compound 0.316 µM.
Setting [3] is: curve of first compound, second compound 1 µM.
[4] abbreviates: curve of first compound, second compound 3.16 µM.
Setting [5] is: curve of first compound, second compound 10 µM.
The mark [6] stands for this setting: second compound 0.1 µM, first compound 0.0316 µM.
The mark [7] stands for this setting: second compound 0.1 µM, first compound 0.1 µM.
Where [8] appears, read: second compound 0.1 µM, first compound 0.316 µM.
Where [9] appears, read: second compound 0.1 µM, first compound 1 µM.
Setting [10] is: second compound 0.1 µM, first compound 3.16 µM.
[11] abbreviates: second compound 0.1 µM, first compound 10 µM.
[12] abbreviates: second compound 0.316 µM, first compound 0.0316 µM.
The mark [13] stands for this setting: second compound 0.316 µM, first compound 0.1 µM.
[14] abbreviates: second compound 0.316 µM, first compound 0.316 µM.
Where [15] appears, read: second compound 0.316 µM, first compound 1 µM.
The mark [16] stands for this setting: second compound 0.316 µM, first compound 3.16 µM.
Setting [17] is: second compound 0.316 µM, first compound 10 µM.
[18] abbreviates: second compound 1 µM, first compound 0.0316 µM.
[19] abbreviates: second compound 1 µM, first compound 0.1 µM.
[20] abbreviates: second compound 1 µM, first compound 0.316 µM.
Where [21] appears, read: second compound 1 µM, first compound 1 µM.
Where [22] appears, read: second compound 1 µM, first compound 3.16 µM.
Where [23] appears, read: second compound 1 µM, first compound 10 µM.
Where [24] appears, read: second compound 3.16 µM, first compound 0.0316 µM.
The mark [25] stands for this setting: second compound 3.16 µM, first compound 0.1 µM.
Setting [26] is: second compound 3.16 µM, first compound 0.316 µM.
Setting [27] is: second compound 3.16 µM, first compound 1 µM.
The mark [28] stands for this setting: second compound 3.16 µM, first compound 3.16 µM.
[29] abbreviates: second compound 3.16 µM, first compound 10 µM.
Where [30] appears, read: second compound 10 µM, first compound 0.0316 µM.
[31] abbreviates: second compound 10 µM, first compound 0.1 µM.
Where [32] appears, read: second compound 10 µM, first compound 0.316 µM.
Where [33] appears, read: second compound 10 µM, first compound 1 µM.
Where [34] appears, read: second compound 10 µM, first compound 3.16 µM.
The mark [35] stands for this setting: second compound 10 µM, first compound 10 µM.
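Note: spheroids exposed to compounds for seven days after three days of growth.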

One may read the IC50 as the point on the concentration scale where inhibition reaches its midpoint. The term viability, T/C denotes the ratio of treated to control. For `O=C(C=Cc1cccc(S(=O)(=O)Nc2ccccc2)c1)NO` + CC(CO)NC(=O)c1cc(-c2ccc(Cl)cc2)nn(-c2cnn(C)c2)c1=O, the IC50 is 0.279 µM under setting [1]; 0.327 µM under setting [2]; 0.261 µM under setting [3]; 0.146 µM under setting [4]; less than 0.0316 µM under setting [5]. The viability, T/C under setting [6] is 72.2%; the viability, T/C under setting [7] is 56.7%; the viability, T/C under setting [8] is 48.6%; the viability, T/C under setting [9] was 35.1%; the viability, T/C under setting [10] is 28.5%; the viability, T/C under setting [11] is 1.96%. Further, the viability, T/C was 74% under setting [12]; 63.3% under setting [13]; 46.1% under setting [14]; 36.3% under setting [15]; 30.7% under setting [16]; 2.62% under setting [17]. For the same compound, the viability, T/C under setting [18] is 67.8%; the viability, T/C under setting [19] was 57.3%; the viability, T/C under setting [20] was 46.5%; the viability, T/C under setting [21] is 35.4%; the viability, T/C under setting [22] is 28.7%; the viability, T/C under setting [23] was 3.31%. Also, the viability, T/C runs as follows: under setting [24], 64%; under setting [25], 52%; under setting [26], 41.9%; under setting [27], 31%; under setting [28], 22.5%; under setting [29], 2.61%. For the same compound, the viability, T/C is 50.4% under setting [30]; 43.6% under setting [31]; 39.1% under setting [32]; 29.1% under setting [33]; 20% under setting [34]; 1.62% under setting [35].

Take `CC(C)c1c(-c2ccccc2)nc2c(C#N)c[nH]n2c1=O` + Cc1ccccc1N=Nc1ccc(NC(=O)c2ccnn2C)c(C)c1: the IC50 was more than 10 µM under setting [1]; more than 10 µM under setting [2]; more than 10 µM under setting [3]; more than 10 µM under setting [4]; more than 10 µM under setting [5]. Also, the viability, T/C is, setting by setting: under setting [6], 86.5%; under setting [7], 86%; under setting [8], 91.9%; under setting [9], 88.7%; under setting [10], 89.8%; under setting [11], 96.5%. Further, the viability, T/C runs as follows: under setting [12], 79.3%; under setting [13], 85.2%; under setting [14], 86.1%; under setting [15], 81.2%; under setting [16], 94%; under setting [17], 85.9%. Besides, the viability, T/C under setting [18] was 84.2%; the viability, T/C under setting [19] is 86.2%; the viability, T/C under setting [20] was 80.8%; the viability, T/C under setting [21] is 87%; the viability, T/C under setting [22] is 83.6%; the viability, T/C under setting [23] is 81.8%. For the same compound, the viability, T/C reads like this: under setting [24], 78.6%; under setting [25], 72.3%; under setting [26], 78.8%; under setting [27], 76.8%; under setting [28], 74%; under setting [29], 65.8%. The viability, T/C is 58.1% under setting [30]; 61.2% under setting [31]; 58.6% under setting [32]; 63.9% under setting [33]; 65% under setting [34]; 50.3% under setting [35].

As for `Nc1ncn(C2CC(O)C(CO)S2)c(=O)n1` (centres undefined) + Cc1cncc(-c2nc(NCCc3c[nH]c4ccccc34)c3ncn(C(C)C)c3n2)c1, the IC50 was more than 0.3 µM under setting [1]; more than 0.3 µM under setting [2]; more than 0.3 µM under setting [3]; more than 0.3 µM under setting [4]; 0.0913 µM under setting [5]. Besides, the viability, T/C was 94.8% (second compound 0.1 µM, first compound 0.000949 µM); 92.2% (second compound 0.1 µM, first compound 0.003 µM); 91.3% (second compound 0.1 µM, first compound 0.00949 µM); 92.6% (second compound 0.1 µM, first compound 0.03 µM); 87% (second compound 0.1 µM, first compound 0.0949 µM); 89.9% (second compound 0.1 µM, first compound 0.3 µM). Also, the viability, T/C (second compound 0.316 µM, first compound 0.000949 µM) is 91%; the viability, T/C (second compound 0.316 µM, first compound 0.003 µM) is 85.9%; the viability, T/C (second compound 0.316 µM, first compound 0.00949 µM) is 88.2%; the viability, T/C (second compound 0.316 µM, first compound 0.03 µM) is 98.2%; the viability, T/C (second compound 0.316 µM, first compound 0.0949 µM) was 88.2%; the viability, T/C (second compound 0.316 µM, first compound 0.3 µM) was 92.7%. For the same compound, the viability, T/C is 71.9% (second compound 1 µM, first compound 0.000949 µM); 74% (second compound 1 µM, first compound 0.003 µM); 69.7% (second compound 1 µM, first compound 0.00949 µM); 75.1% (second compound 1 µM, first compound 0.03 µM); 82.4% (second compound 1 µM, first compound 0.0949 µM); 82.9% (second compound 1 µM, first compound 0.3 µM). In addition, the viability, T/C runs as follows: (second compound 3.16 µM, first compound 0.000949 µM) 52.2%; (second compound 3.16 µM, first compound 0.003 µM) 55.5%; (second compound 3.16 µM, first compound 0.00949 µM) 59.5%; (second compound 3.16 µM, first compound 0.03 µM) 47.3%; (second compound 3.16 µM, first compound 0.0949 µM) 50%; (second compound 3.16 µM, first compound 0.3 µM) 57.8%. The viability, T/C runs as follows: (second compound 10 µM, first compound 0.000949 µM) 50.1%; (second compound 10 µM, first compound 0.003 µM) 48.8%; (second compound 10 µM, first compound 0.00949 µM) 54.6%; (second compound 10 µM, first compound 0.03 µM) 50%; (second compound 10 µM, first compound 0.0949 µM) 50.2%; (second compound 10 µM, first compound 0.3 µM) 48.4%.

As to `CC1(C)CCC(CN2CCN(c3ccc(C(=O)NS(=O)(=O)c4ccc(NCC5CCOCC5)c([N+](=O)[O-])c4)c(Oc4cnc5[nH]ccc5c4)c3)CC2)=C(c2ccc(Cl)cc2)C1`, the viability, T/C runs as follows: (compound 0.0316 µM) 104% and 92.6% and 102%; (compound 0.1 µM) 106% and 105% and 104%; (compound 0.316 µM) 108% and 109% and 97.2%; (compound 1 µM) 106% and 116% and 102%; (compound 3.16 µM) 102% and 109% and 94%; (compound 10 µM) 22.7% and 18.6% and 22.2%. For the same compound, where the note is “curve of compound”, the IC50 was 6.73 µM and 6.62 µM and 6.41 µM.

As for `Nc1ncn(C2CC(O)C(CO)O2)c(=O)n1` (centres undefined), the viability, T/C reads like this: (compound 0.00316 µM) 107% and 102% and 96.8%; (compound 0.01 µM) 99.8% and 97.5% and 103%; (compound 0.0316 µM) 95.7% and 100% and 89.4%; (compound 0.1 µM) 93.7% and 93.1% and 77.7%; (compound 0.316 µM) 86.8% and 83% and 89%; (compound 1 µM) 76.3% and 76.8% and 78.2%. Besides, the IC50 (curve of compound) was more than 1 µM.
